Source: article PMC12624955, “Exploring diarylheptanoid derivatives to target LIMK1 as potential agents against colorectal cancer” (Journal of Enzyme Inhibition and Medicinal Chemistry, 2025)
Read-outs that look alike come from different tables or passages of the source.

Legend:
LIMK1 = biological target: T1, LIMK1 (Homo sapiens, UniProt P53667); experiment: LanthaScreen Eu kinase binding assay (SelectScreen), LIMK1 inhibition; details: for inhibition at 10 µM: compound at 10 μM, average of two replicates, read-out: Inhibition percentage at 10 μM
T1 construct: purchased Thermo Fisher Scientific (SelectScreen Kinase assay service)
T1 sequence (P53667 whole entry): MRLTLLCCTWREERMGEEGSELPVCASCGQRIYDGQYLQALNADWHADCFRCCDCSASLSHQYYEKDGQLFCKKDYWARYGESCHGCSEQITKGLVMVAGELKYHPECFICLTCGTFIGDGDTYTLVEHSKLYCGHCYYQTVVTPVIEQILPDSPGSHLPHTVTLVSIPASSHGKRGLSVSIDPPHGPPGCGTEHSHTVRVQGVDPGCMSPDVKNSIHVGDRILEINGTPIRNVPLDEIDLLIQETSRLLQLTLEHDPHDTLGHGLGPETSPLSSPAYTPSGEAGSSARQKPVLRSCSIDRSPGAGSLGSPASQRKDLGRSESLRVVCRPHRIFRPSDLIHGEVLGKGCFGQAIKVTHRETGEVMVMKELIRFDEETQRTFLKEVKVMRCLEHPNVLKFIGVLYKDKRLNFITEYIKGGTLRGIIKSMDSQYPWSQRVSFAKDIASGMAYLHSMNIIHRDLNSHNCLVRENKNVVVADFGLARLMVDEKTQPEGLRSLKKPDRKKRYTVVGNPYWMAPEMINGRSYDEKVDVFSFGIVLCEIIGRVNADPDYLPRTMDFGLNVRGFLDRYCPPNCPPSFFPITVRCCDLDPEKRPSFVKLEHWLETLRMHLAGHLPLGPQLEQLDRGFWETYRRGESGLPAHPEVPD
Procedure: The inhibitory activities of the compounds against kinases were tested using the SelectScreen Kinase assay from Thermo Fisher Scientific in Waltham, MA, USA. The LanthaScreen Eu kinase binding assay was used to validate the LIMK1 inhibition activity of the compounds, and was performed according to the manufacturer’s protocol (https://www.thermofisher.com/tw/zt/home/industrial/pharma-biopharma/drug-discovery-development/target-and-lead-identification-and-validation/kinasebiology/kinase-activity-assays/lanthascreentm-eu-kinase-binding-assay/lanthascreen-eu-kinase-binding-assay-validation-table.html). This endpoint assay quantifies inhibitor binding through the displacement of a fluorescently labelled ATP-competitive tracer from LIMK1. A mixture of the 100× compounds, 2× LIMK1/antibody mixture (Eu-anti-His), 4× tracer 236, and kinase buffer were mixed sequentially. After incubation at room temperature for 1 h, the mixture was analysed using a fluorescence plate reader. The kinase inhibition assay results were expressed as the average of two replicates.

HCT-116 [1] = experiment: MTT assay (cell viability); format: cell-based; details: Homo sapiens, 72 h, mean ± SD
Procedure: (§1) Colorectal cell line, HCT-116, was purchased from the Bioresource Collection and Research Centre (BCRC, Hsinchu, Taiwan), while HT-29 was obtained from the American Type Culture Collection (ATCC, Manassas, VA, USA). Both cell lines were maintained in McCoy’s 5 A medium (with L-glutamine and 2.2 g/L NaHCO3, M4892, Sigma) supplemented with 10% foetal bovine serum (Corning Incorporated, NY, USA) and 1% penicillin–streptomycin–amphotericin B (100 unit/ml penicillin G, 0.1 mg/ml streptomycin sulphate, 0.25 μg/ml amphotericin B, Corning Incorporated, NY, USA). All cultures were maintained in a humidified incubator at 37 °C with 5% CO2.
(§2) Cells were seeded in 96-well plates at a density of 3 × 10^3 cells/well in 100 μl of culture medium and treated with compounds at the indicated concentrations (0.3, 1, 3, 10, and 30 μM) for 72 h. Following treatment, the 3-(4,5-dimethylthiazol-2-yl)-2,5-diphenyltetrazolium bromide (MTT) solution (5 mg/ml in Phosphate-buffered saline (PBS)) was added to each well to reach a final concentration of 0.5 mg/ml, and the cells were incubated at 37 °C for 1 h. The resulting formazan crystal was dissolved in 100 µl of DMSO, and the absorbance was measured at 550 nm using an ELISA reader (Molecular Device, Sunnyvale, CA, USA).

HT-29 [2] = experiment: MTT assay (cell viability); format: cell-based; details: Homo sapiens, 72 h, mean ± SD
Procedure: as §1, §2

HCT-116 [3] = experiment: Sulforhodamine B assay (cell proliferation); format: cell-based
Procedure: as §1
(§3) Cells were seeded in 96-well plates at a density of 3 × 10^3 cells/well in 100 μl of culture medium and treated with compounds at the indicated concentrations for 72 h. After treatment, cells were fixed with 10% trichloroacetic acid for 20 min and washed with H2O. The cells were then stained with 0.4% sulforhodamine B (SRB) in 1% acetic acid for 20 min, followed by two washes with 1% acetic acid. After the well-dried, the protein-bound dye was dissolved in 100 µl of 10 mM Tris base solution, and the absorbance was measured at 515 nm using an ELISA reader (Molecular Device, Sunnyvale, CA, USA).

HT-29 [4] = experiment: Sulforhodamine B assay (cell proliferation); format: cell-based; details: Homo sapiens, SRB assay, 72 h, mean ± SD
Procedure: as §1, §3

LIMK = details: cited from earlier work

| SMILES | inhibition at 10 µM (LIMK1) [%] | also measured |
| --- | --- | --- |
| O=C(/C=C/c1ccc(O)c(F)c1)CCCCc1ccccc1 [Compound X] | ≤ 0 |  |
| O=C(/C=C/c1ccc(O)c(O)c1)CCCCc1cccc(O)c1 [Compound 7b, 1-(3.4-Dihydroxyphenyl)-7-(3-hydroxyphenyl)hept-1-en-3-one] | 102 | IC50 (LIMK1): 1110 nM |
| O=C(CCCCc1ccccc1)CCc1ccc(O)c(O)c1 [II] | 30 |  |
| O=C(/C=C/c1ccc(O)c(O)c1)CCCCc1ccc(O)cc1 [Compound 7c, 1-(3.4-Dihydroxyphenyl)-7-(4-hydroxyphenyl)hept-1-en-3-one] | 106 | IC50 (LIMK1): 1090 nM |
| O=C(/C=C/c1ccc(O)c(O)c1)c1ccccc1 [III] | 84 |  |
| O=C(/C=C/c1ccc(O)c(O)c1)CCCCc1ccccc1O [Compound 7a, 1-(3.4-Dihydroxyphenyl)-7-(2-hydroxyphenyl)hept-1-en-3-one] | 89 | IC50 (LIMK1): 1770 nM |
| O=C(/C=C/c1ccc(O)c([N+](=O)[O-])c1)CCCCc1ccccc1 [XIII] | 7 |  |
| O=C(/C=C/c1ccc(O)c(O)c1)Cc1ccccc1 [IV] | 56 |  |
| O=C(CCCCc1cccc(O)c1)CCc1ccc(O)c(O)c1 [Compound 8b, 1-(3.4-Dihydroxyphenyl)-7-(3-hydroxyphenyl)heptan-3-one] | 34 |  |
| O=C(CCCCn1ccc2ccc(O)cc21)CCc1ccc(O)c(O)c1 [Compound 14b, 1-(3,4-Dihydroxyphenyl)-7-(6-hydroxy-1H-indol-1-yl)heptan-3-one] | 53 |  |
| O=C(/C=C/c1ccc(O)c(O)c1)CCCCn1ccc2ccc(O)cc21 [Compound 13b, (E)-1-(3.4-dihydroxyphenyl)-7-(6-hydroxy-1H-indol-1-yl)hept-1-en-3-one] | 106 | IC50 (LIMK1): 1390 nM |
| O=C(/C=C/c1ccc(O)c(O)c1)CCCCc1ccccc1 [Compound I] | 101 | IC50 (LIMK1): 1590 nM |
| O=C(/C=C/c1ccc(O)c(Br)c1)CCCCc1ccccc1 [XII] | 1 |  |
| O=C(/C=C/c1ccc(O)c(O)c1)CCCCn1ccc2ccccc21 [Compound 18, (E)-1-(3,4-dihydroxyphenyl)-7-(1H-indol-1-yl)hept-1-en-3-one] | 110 | IC50 (LIMK1): 1490 nM |
| O=C(/C=C/c1ccc(O)c(O)c1)CCc1ccccc1 [Compound V] | 68 |  |
| O=C(CCCCc1ccccc1O)CCc1ccc(O)c(O)c1 [Compound 8a, 1-(3.4-Dihydroxyphenyl)-7-(2-hydroxyphenyl)heptan-3-one] | 37 |  |
| COc1cc(/C=C/C(=O)CCCCc2ccccc2)ccc1O [XIV] | 1 |  |
| O=C(CCCCc1ccc(O)cc1)CCc1ccc(O)c(O)c1 [Compound 8c, 1-(3.4-Dihydroxyphenyl)-7-(4-hydroxyphenyl)heptan-3-one] | 47 |  |
| O=C(/C=C/c1ccc(O)cc1)CCCCc1ccccc1 [VIII] | ≤ 0 |  |
| O=C(/C=C/c1cc(O)c(O)c(O)c1)CCCCc1ccccc1 [Compound XV] | 112 | IC50 (LIMK1): 570 nM; IC50 (LIMK1; as printed in text): 569 nM; IC50 (HCT-116 [1]): > 30000 nM; IC50 (HT-29 [2]): > 30000 nM; GI50 (HCT-116 [3]; Homo sapiens, SRB assay, 72 h, mean ± SD): > 30000 nM; growth inhibition of HCT-116 cells (HCT-116 [3]; concentration of 30 µM): did not inhibit the growth; GI50 (HT-29 [4]): 28800 ± 1800 nM |
| O=C(CCCCn1ccc2c(O)cccc21)CCc1ccc(O)c(O)c1 [Compound 14a, 1-(3,4-Dihydroxyphenyl)-7-(4-hydroxy-1H-indol-1-yl)heptan-3-one] | 51 |  |
| O=C(/C=C/c1ccccc1)CCCCc1ccccc1 [Compound VII] | ≤ 0 |  |
| COc1cc(/C=C/C(=O)CC(=O)/C=C/c2ccc(O)c(OC)c2)ccc1O [curcumin] |  | IC50 (LIMK): 30000 nM |
| O=C(/C=C/c1ccc(O)c(Cl)c1)CCCCc1ccccc1 [XI] | 4 |  |
| O=C(/C=C/c1ccc(O)c(O)c1)CCCc1ccccc1 [Compound VI] | 82 |  |
| O=C(CCCCn1ccc2ccccc21)CCc1ccc(O)c(O)c1 [Compound 19, 1-(3,4-Dihydroxyphenyl)-7-(1H-indol-1-yl)heptan-3-one] | 28 |  |
| O=C(/C=C/c1cccc(O)c1)CCCCc1ccccc1 [IX] | ≤ 0 |  |
| COCOc1cccc2c1ccn2CCCCC(=O)/C=C/c1ccc(O)c(O)c1 [Compound 15, (E)-1-(3,4-dihydroxyphenyl)-7-(4-(methoxymethoxy)-1H-indol-1-yl)hept-1-en-3-one] | 106 | IC50 (LIMK1): 1880 nM |
